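Cells were grown in 96-well plates and exposed to each compound for 48 hours at five concentrations; endpoints were interpolated linearly between bracketing concentrations, or set to the highest concentration if not reached. The concentration for full growth arrest is given as TGI.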
Key:
Test in all cases: NCI-60 cell line screen, 48 h
786-0 renal = tested on: 786-0 renal
A498 renal = tested on: A498 renal
A549 NSCLC = tested on: A549 NSCLC
ACHN renal = tested on: ACHN renal
BT-549 breast = tested on: BT-549 breast
CAKI-1 renal = tested on: CAKI-1 renal
CCRF-CEM leukemia = tested on: CCRF-CEM leukemia
COLO 205 colon = tested on: COLO 205 colon
DLD-1 colon = tested on: DLD-1 colon
DMS 114 small cell lung = tested on: DMS 114 small cell lung
DU-145 prostate = tested on: DU-145 prostate
EKVX NSCLC = tested on: EKVX NSCLC
HCC-2998 colon = tested on: HCC-2998 colon
HCT-116 colon = tested on: HCT-116 colon
HCT-15 colon = tested on: HCT-15 colon
HL-60(TB) leukemia = tested on: HL-60(TB) leukemia
HOP-18 NSCLC = tested on: HOP-18 NSCLC
HOP-62 NSCLC = tested on: HOP-62 NSCLC
HOP-92 NSCLC = tested on: HOP-92 NSCLC
HS 578T breast = tested on: HS 578T breast
HT29 colon = tested on: HT29 colon
IGROV1 ovarian = tested on: IGROV1 ovarian
K-562 leukemia = tested on: K-562 leukemia
KM12 colon = tested on: KM12 colon
KM20L2 colon = tested on: KM20L2 colon
LOX IMVI melanoma = tested on: LOX IMVI melanoma
LXFL 529 NSCLC = tested on: LXFL 529 NSCLC
M14 melanoma = tested on: M14 melanoma
M19-MEL melanoma = tested on: M19-MEL melanoma
MALME-3M melanoma = tested on: MALME-3M melanoma
MCF7 breast = tested on: MCF7 breast
MDA-MB-231 breast = tested on: MDA-MB-231 breast
MDA-MB-435 = tested on: MDA-MB-435
MDA-N = tested on: MDA-N
MOLT-4 leukemia = tested on: MOLT-4 leukemia
NCI-H226 lung = tested on: NCI-H226 lung
NCI-H23 lung = tested on: NCI-H23 lung
NCI-H460 lung = tested on: NCI-H460 lung
NCI-H522 lung = tested on: NCI-H522 lung
NCI/ADR-RES ovarian = tested on: NCI/ADR-RES ovarian
OVCAR-3 ovarian = tested on: OVCAR-3 ovarian
OVCAR-4 ovarian = tested on: OVCAR-4 ovarian
OVCAR-5 ovarian = tested on: OVCAR-5 ovarian
OVCAR-8 ovarian = tested on: OVCAR-8 ovarian
PC-3 prostate = tested on: PC-3 prostate
RPMI-8226 leukemia = tested on: RPMI-8226 leukemia
RXF 393 renal = tested on: RXF 393 renal
SF-268 CNS = tested on: SF-268 CNS
SF-295 CNS = tested on: SF-295 CNS
SF-539 CNS = tested on: SF-539 CNS
SK-MEL-2 melanoma = tested on: SK-MEL-2 melanoma
SK-MEL-28 melanoma = tested on: SK-MEL-28 melanoma
SK-MEL-5 melanoma = tested on: SK-MEL-5 melanoma
SK-OV-3 ovarian = tested on: SK-OV-3 ovarian
SN12C renal = tested on: SN12C renal
SNB-19 CNS = tested on: SNB-19 CNS
SNB-75 CNS = tested on: SNB-75 CNS
SNB-78 CNS = tested on: SNB-78 CNS
SR leukemia = tested on: SR leukemia
SW-620 colon = tested on: SW-620 colon
T-47D breast = tested on: T-47D breast
TK-10 renal = tested on: TK-10 renal
U251 CNS = tested on: U251 CNS
UACC-257 melanoma = tested on: UACC-257 melanoma
UACC-62 melanoma = tested on: UACC-62 melanoma
UO-31 renal = tested on: UO-31 renal
DMS 273 small cell lung = tested on: DMS 273 small cell lung
XF 498 CNS = tested on: XF 498 CNS

CN(C)C(=S)/N=c1\ssc(=S)n1Cc1cccs1
TGI (786-0 renal): 52.5 µM | TGI (A498 renal): > 100 µM | TGI (A549 NSCLC): > 91.4 µM | TGI (ACHN renal): > 100 µM | TGI (BT-549 breast): > 100 µM | TGI (CAKI-1 renal): > 91.4 µM | TGI (CCRF-CEM leukemia): > 60.2 µM | TGI (COLO 205 colon): 6.41 µM | TGI (DLD-1 colon): > 100 µM | TGI (DMS 114 small cell lung): 5.6 µM | TGI (DU-145 prostate): > 100 µM | TGI (EKVX NSCLC): > 94.6 µM | TGI (HCC-2998 colon): > 100 µM | TGI (HCT-116 colon): > 69.6 µM | TGI (HCT-15 colon): > 100 µM | TGI (HL-60(TB) leukemia): 13.9 µM | TGI (HOP-18 NSCLC): > 100 µM | TGI (HOP-62 NSCLC): 81.3 µM | TGI (HOP-92 NSCLC): > 89.1 µM | TGI (HS 578T breast): 5.17 µM | TGI (HT29 colon): > 100 µM | TGI (IGROV1 ovarian): > 100 µM | TGI (K-562 leukemia): > 55.8 µM | TGI (KM12 colon): > 100 µM | TGI (KM20L2 colon): 3.57 µM | TGI (LOX IMVI melanoma): > 100 µM | TGI (LXFL 529 NSCLC): > 100 µM | TGI (M14 melanoma): > 100 µM | TGI (M19-MEL melanoma): > 100 µM | TGI (MALME-3M melanoma): 74.7 µM | TGI (MCF7 breast): > 30.4 µM | TGI (MDA-MB-231 breast): > 100 µM | TGI (MDA-MB-435): 2.71 µM | TGI (MDA-N): 2.85 µM | TGI (MOLT-4 leukemia): > 100 µM | TGI (NCI-H226 lung): > 100 µM | TGI (NCI-H23 lung): > 100 µM | TGI (NCI-H460 lung): > 89.7 µM | TGI (NCI-H522 lung): 9.6 µM | TGI (NCI/ADR-RES ovarian): 5.1 µM | TGI (OVCAR-3 ovarian): 6.57 µM | TGI (OVCAR-4 ovarian): > 91.7 µM | TGI (OVCAR-5 ovarian): > 100 µM | TGI (OVCAR-8 ovarian): 52.9 µM | TGI (PC-3 prostate): > 100 µM | TGI (RPMI-8226 leukemia): > 100 µM | TGI (RXF 393 renal): 23.9 µM | TGI (SF-268 CNS): > 100 µM | TGI (SF-295 CNS): 21.8 µM | TGI (SF-539 CNS): 15.1 µM | TGI (SK-MEL-2 melanoma): 25.7 µM | TGI (SK-MEL-28 melanoma): > 100 µM | TGI (SK-MEL-5 melanoma): > 16.1 µM | TGI (SK-OV-3 ovarian): > 90 µM | TGI (SN12C renal): > 100 µM | TGI (SNB-19 CNS): > 90.9 µM | TGI (SNB-75 CNS): 15.2 µM | TGI (SNB-78 CNS): > 100 µM | TGI (SR leukemia): > 100 µM | TGI (SW-620 colon): > 100 µM | TGI (T-47D breast): > 100 µM | TGI (TK-10 renal): > 81.6 µM | TGI (U251 CNS): 69.9 µM | TGI (UACC-257 melanoma): > 75.4 µM | TGI (UACC-62 melanoma): > 56.7 µM | TGI (UO-31 renal): > 100 µM

Cc1c(-c2coc(-c3ccccc3)n2)c(=O)n(-c2ccccc2)n1C
TGI (786-0 renal): > 100 µM | TGI (A498 renal): > 100 µM | TGI (A549 NSCLC): > 100 µM | TGI (ACHN renal): > 100 µM | TGI (CCRF-CEM leukemia): > 100 µM | TGI (COLO 205 colon): > 100 µM | TGI (DLD-1 colon): > 100 µM | TGI (DMS 114 small cell lung): > 100 µM | TGI (DMS 273 small cell lung): > 100 µM | TGI (HCC-2998 colon): > 100 µM | TGI (HCT-116 colon): > 100 µM | TGI (HCT-15 colon): > 100 µM | TGI (HL-60(TB) leukemia): > 100 µM | TGI (HOP-62 NSCLC): > 100 µM | TGI (HOP-92 NSCLC): > 100 µM | TGI (HT29 colon): > 100 µM | TGI (IGROV1 ovarian): > 100 µM | TGI (KM12 colon): > 100 µM | TGI (KM20L2 colon): > 100 µM | TGI (LOX IMVI melanoma): > 100 µM | TGI (LXFL 529 NSCLC): > 100 µM | TGI (M14 melanoma): > 100 µM | TGI (M19-MEL melanoma): > 100 µM | TGI (MALME-3M melanoma): > 100 µM | TGI (MOLT-4 leukemia): 86.9 µM | TGI (NCI-H226 lung): > 100 µM | TGI (NCI-H23 lung): > 100 µM | TGI (NCI-H460 lung): > 100 µM | TGI (NCI-H522 lung): > 100 µM | TGI (OVCAR-3 ovarian): > 100 µM | TGI (OVCAR-4 ovarian): > 100 µM | TGI (OVCAR-5 ovarian): > 100 µM | TGI (OVCAR-8 ovarian): > 100 µM | TGI (RPMI-8226 leukemia): > 100 µM | TGI (SF-268 CNS): > 100 µM | TGI (SF-295 CNS): > 100 µM | TGI (SF-539 CNS): > 100 µM | TGI (SK-MEL-2 melanoma): > 100 µM | TGI (SK-MEL-28 melanoma): > 100 µM | TGI (SK-MEL-5 melanoma): 61 µM | TGI (SK-OV-3 ovarian): > 100 µM | TGI (SN12C renal): > 100 µM | TGI (SNB-19 CNS): > 100 µM | TGI (SNB-75 CNS): > 100 µM | TGI (SNB-78 CNS): > 100 µM | TGI (SR leukemia): > 100 µM | TGI (SW-620 colon): > 100 µM | TGI (TK-10 renal): > 100 µM | TGI (U251 CNS): > 100 µM | TGI (UACC-257 melanoma): > 100 µM | TGI (UO-31 renal): > 100 µM | TGI (XF 498 CNS): 81.7 µM

Cn1cnc([N+](=O)[O-])c1Sc1nnnn1C
TGI (786-0 renal): 32.1 µM | TGI (A498 renal): > 100 µM | TGI (A549 NSCLC): > 100 µM | TGI (ACHN renal): 30.5 µM | TGI (CAKI-1 renal): 31.8 µM | TGI (CCRF-CEM leukemia): 25 µM | TGI (COLO 205 colon): 25.3 µM | TGI (DLD-1 colon): 29.5 µM | TGI (DMS 114 small cell lung): 32.2 µM | TGI (DMS 273 small cell lung): 36.1 µM | TGI (EKVX NSCLC): 40.8 µM | TGI (HCC-2998 colon): 51.2 µM | TGI (HCT-116 colon): 28 µM | TGI (HOP-18 NSCLC): 21.5 µM | TGI (HOP-62 NSCLC): > 100 µM | TGI (HOP-92 NSCLC): 25.2 µM | TGI (HT29 colon): 40.5 µM | TGI (IGROV1 ovarian): 49.1 µM | TGI (K-562 leukemia): 42.3 µM | TGI (KM12 colon): > 100 µM | TGI (LOX IMVI melanoma): 26.6 µM | TGI (LXFL 529 NSCLC): 24.4 µM | TGI (M14 melanoma): 28.4 µM | TGI (M19-MEL melanoma): 29.9 µM | TGI (MALME-3M melanoma): 26.9 µM | TGI (MOLT-4 leukemia): 33.7 µM | TGI (NCI-H226 lung): > 100 µM | TGI (NCI-H23 lung): 34.7 µM | TGI (NCI-H460 lung): > 100 µM | TGI (NCI-H522 lung): 20.5 µM | TGI (OVCAR-3 ovarian): 29.4 µM | TGI (OVCAR-4 ovarian): 30.8 µM | TGI (OVCAR-5 ovarian): 45.2 µM | TGI (OVCAR-8 ovarian): 33.2 µM | TGI (RPMI-8226 leukemia): > 100 µM | TGI (SF-268 CNS): 50.2 µM | TGI (SF-295 CNS): > 100 µM | TGI (SF-539 CNS): 36.3 µM | TGI (SK-MEL-2 melanoma): 37.3 µM | TGI (SK-MEL-28 melanoma): 27.3 µM | TGI (SK-MEL-5 melanoma): 31.6 µM | TGI (SK-OV-3 ovarian): > 100 µM | TGI (SN12C renal): 32.1 µM | TGI (SNB-19 CNS): > 100 µM | TGI (SNB-75 CNS): 89.6 µM | TGI (SNB-78 CNS): 30.2 µM | TGI (SR leukemia): 28.2 µM | TGI (SW-620 colon): 26 µM | TGI (TK-10 renal): 31.4 µM | TGI (U251 CNS): 34.1 µM | TGI (UACC-257 melanoma): 29.8 µM | TGI (UACC-62 melanoma): 32 µM | TGI (UO-31 renal): 32.6 µM | TGI (XF 498 CNS): 30 µM
